Assay results from publication PMC9562281.

Experiment: On-resin ring-closing metathesis (C=C) of bis-alkenyl beta-(1,6)-hexaglucosides, Grubbs catalyst 20 mol% per cycle, Ar bubbling. Method B (8a-8d): Grubbs II, MW 60 C, 40 min per cycle, 6 cycles for 8a and 3 for 8b-8d. Method A (8e-8g): Grubbs I, 25 C, 60 min per cycle, 3 cycles
Conditions: the molecule shown is the open-chain precursor, 16 steps

With C=CCCO[C@@H]1[C@@H](OC(=O)c2ccccc2)[C@H](OC[C@H]2O[C@@H](OC[C@H]3O[C@@H](OC[C@H]4O[C@@H](OC[C@H]5O[C@@H](OC[C@H]6O[C@@H](OCCCCCN(Cc7ccc(OC)cc7[N+](=O)[O-])C(=O)OCc7ccccc7)[C@H](OC(=O)c7ccccc7)[C@@H](OC(=O)c7ccccc7)[C@@H]6OCc6ccccc6)[C@H](OC(=O)c6ccccc6)[C@@H](OCc6ccccc6)[C@@H]5OCC=C)[C@H](OC(=O)c5ccccc5)[C@@H](OC(=O)c5ccccc5)[C@@H]4OCc4ccccc4)[C@H](OC(=O)c4ccccc4)[C@@H](OC(=O)c4ccccc4)[C@@H]3OCc3ccccc3)[C@H](OC(=O)c3ccccc3)[C@@H](OC(=O)c3ccccc3)[C@@H]2OCc2ccccc2)O[C@H](CO)[C@H]1OCc1ccccc1 [8b (from 5b, -(CH2)5-)] as the molecule, how does the ring closure, overall yield (29-membered ring, 1,2-dichloroethane, 2.0 h) read?
Its ring closure, overall yield is 10%.

For C=CCCCO[C@@H]1[C@@H](OC(=O)c2ccccc2)[C@H](OC[C@H]2O[C@@H](OC[C@H]3O[C@@H](OC[C@H]4O[C@@H](OC[C@H]5O[C@@H](OC[C@H]6O[C@@H](OCCCCCN(Cc7ccc(OC)cc7[N+](=O)[O-])C(=O)OCc7ccccc7)[C@H](OC(=O)c7ccccc7)[C@@H](OC(=O)c7ccccc7)[C@@H]6OCc6ccccc6)[C@H](OC(=O)c6ccccc6)[C@@H](OCc6ccccc6)[C@@H]5OCC=C)[C@H](OC(=O)c5ccccc5)[C@@H](OC(=O)c5ccccc5)[C@@H]4OCc4ccccc4)[C@H](OC(=O)c4ccccc4)[C@@H](OC(=O)c4ccccc4)[C@@H]3OCc3ccccc3)[C@H](OC(=O)c3ccccc3)[C@@H](OC(=O)c3ccccc3)[C@@H]2OCc2ccccc2)O[C@H](CO)[C@H]1OCc1ccccc1 [8c (from 5c, -(CH2)6-)], which ring closure, overall yield (30-membered ring, 1,2-dichloroethane, 2.0 h) is on record?
Its ring closure, overall yield is 15%.

With C=CCCCCO[C@H]1[C@H](OCc2ccccc2)[C@@H](OC(=O)c2ccccc2)[C@H](OC[C@H]2O[C@@H](OCCCCCN(Cc3ccc(OC)cc3[N+](=O)[O-])C(=O)OCc3ccccc3)[C@H](OC(=O)c3ccccc3)[C@@H](OC(=O)c3ccccc3)[C@@H]2OCc2ccccc2)O[C@@H]1CO[C@@H]1O[C@H](CO[C@@H]2O[C@H](CO[C@@H]3O[C@H](CO[C@@H]4O[C@H](CO)[C@@H](OCc5ccccc5)[C@H](OCCCC=C)[C@H]4OC(=O)c4ccccc4)[C@@H](OCc4ccccc4)[C@H](OC(=O)c4ccccc4)[C@H]3OC(=O)c3ccccc3)[C@@H](OCc3ccccc3)[C@H](OC(=O)c3ccccc3)[C@H]2OC(=O)c2ccccc2)[C@@H](OCc2ccccc2)[C@H](OC(=O)c2ccccc2)[C@H]1OC(=O)c1ccccc1 [8f (from 5f, -(CH2)9-)] as the molecule, how does the ring closure, overall yield (33-membered ring, 1,2-dichloroethane, 3.0 h) read?
Its ring closure, overall yield is 14%.

With C=CCCCCO[C@@H]1[C@@H](OC(=O)c2ccccc2)[C@H](OC[C@H]2O[C@@H](OC[C@H]3O[C@@H](OC[C@H]4O[C@@H](OC[C@H]5O[C@@H](OC[C@H]6O[C@@H](OCCCCCN(Cc7ccc(OC)cc7[N+](=O)[O-])C(=O)OCc7ccccc7)[C@H](OC(=O)c7ccccc7)[C@@H](OC(=O)c7ccccc7)[C@@H]6OCc6ccccc6)[C@H](OC(=O)c6ccccc6)[C@@H](OCc6ccccc6)[C@@H]5OCC=C)[C@H](OC(=O)c5ccccc5)[C@@H](OC(=O)c5ccccc5)[C@@H]4OCc4ccccc4)[C@H](OC(=O)c4ccccc4)[C@@H](OC(=O)c4ccccc4)[C@@H]3OCc3ccccc3)[C@H](OC(=O)c3ccccc3)[C@@H](OC(=O)c3ccccc3)[C@@H]2OCc2ccccc2)O[C@H](CO)[C@H]1OCc1ccccc1 [8d (from 5d, -(CH2)7-)] as the molecule, how does the ring closure, overall yield (31-membered ring, 1,2-dichloroethane, 2.0 h) read?
Its ring closure, overall yield is 13%.

For C=CCCCCO[C@H]1[C@H](OCc2ccccc2)[C@@H](OC(=O)c2ccccc2)[C@H](OC[C@H]2O[C@@H](OCCCCCN(Cc3ccc(OC)cc3[N+](=O)[O-])C(=O)OCc3ccccc3)[C@H](OC(=O)c3ccccc3)[C@@H](OC(=O)c3ccccc3)[C@@H]2OCc2ccccc2)O[C@@H]1CO[C@@H]1O[C@H](CO[C@@H]2O[C@H](CO[C@@H]3O[C@H](CO[C@@H]4O[C@H](CO)[C@@H](OCc5ccccc5)[C@H](OCCC=C)[C@H]4OC(=O)c4ccccc4)[C@@H](OCc4ccccc4)[C@H](OC(=O)c4ccccc4)[C@H]3OC(=O)c3ccccc3)[C@@H](OCc3ccccc3)[C@H](OC(=O)c3ccccc3)[C@H]2OC(=O)c2ccccc2)[C@@H](OCc2ccccc2)[C@H](OC(=O)c2ccccc2)[C@H]1OC(=O)c1ccccc1 [8e (from 5e, -(CH2)8-)], which ring closure, overall yield (32-membered ring, 1,2-dichloroethane, 3.0 h) is on record?
Its ring closure, overall yield is 15%.

Which ring closure, overall yield (28-membered ring, 1,2-dichloroethane, 4.0 h) does the source give for C=CCO[C@@H]1[C@@H](OC(=O)c2ccccc2)[C@H](OC[C@H]2O[C@@H](OC[C@H]3O[C@@H](OC[C@H]4O[C@@H](OC[C@H]5O[C@@H](OC[C@H]6O[C@@H](OCCCCCN(Cc7ccc(OC)cc7[N+](=O)[O-])C(=O)OCc7ccccc7)[C@H](OC(=O)c7ccccc7)[C@@H](OC(=O)c7ccccc7)[C@@H]6OCc6ccccc6)[C@H](OC(=O)c6ccccc6)[C@@H](OCc6ccccc6)[C@@H]5OCC=C)[C@H](OC(=O)c5ccccc5)[C@@H](OC(=O)c5ccccc5)[C@@H]4OCc4ccccc4)[C@H](OC(=O)c4ccccc4)[C@@H](OC(=O)c4ccccc4)[C@@H]3OCc3ccccc3)[C@H](OC(=O)c3ccccc3)[C@@H](OC(=O)c3ccccc3)[C@@H]2OCc2ccccc2)O[C@H](CO)[C@H]1OCc1ccccc1 [8a (from 5a, -(CH2)4-)] here?
Its ring closure, overall yield is 12%.

Which ring closure, overall yield (34-membered ring, 1,2-dichloroethane, 3.0 h) does the source give for C=CCCCCO[C@@H]1[C@@H](OC(=O)c2ccccc2)[C@H](OC[C@H]2O[C@@H](OC[C@H]3O[C@@H](OC[C@H]4O[C@@H](OC[C@H]5O[C@@H](OC[C@H]6O[C@@H](OCCCCCN(Cc7ccc(OC)cc7[N+](=O)[O-])C(=O)OCc7ccccc7)[C@H](OC(=O)c7ccccc7)[C@@H](OC(=O)c7ccccc7)[C@@H]6OCc6ccccc6)[C@H](OC(=O)c6ccccc6)[C@@H](OCc6ccccc6)[C@@H]5OCCCCC=C)[C@H](OC(=O)c5ccccc5)[C@@H](OC(=O)c5ccccc5)[C@@H]4OCc4ccccc4)[C@H](OC(=O)c4ccccc4)[C@@H](OC(=O)c4ccccc4)[C@@H]3OCc3ccccc3)[C@H](OC(=O)c3ccccc3)[C@@H](OC(=O)c3ccccc3)[C@@H]2OCc2ccccc2)O[C@H](CO)[C@H]1OCc1ccccc1 [8g (from 5g, -(CH2)10-)] here?
Its ring closure, overall yield is 17%.
